Reference: paper PMC9599246 (2022)

Tested on: fl-2CS1 (DNA, aptamer) GAGAGGTCAGATGATGCACTAGGGTTACGAGACCACGCGGTACCCTATGCGTGCTAC
Assay: ITC
Settings: none added; 0.1 M Tris-HCl pH 7.4, 1% DMSO, 25 °C; 125 μM toxin in syringe, 5 μM aptamer in cell

CCCC[C@@H](C)[C@@H](OC(=O)C[C@@H](CC(=O)O)C(=O)O)[C@H](C[C@@H](C)C[C@H](O)CCCC[C@@H](O)C[C@H](O)[C@H](C)N)OC(=O)C[C@@H](CC(=O)O)C(=O)O
binding: no

C[C@@H]1Cc2c(Cl)cc(C(=O)N[C@@H](Cc3ccccc3)C(=O)O)c(O)c2C(=O)O1
binding: no
